According to patent publication US10604554B2, “Double-acylated GLP-1 derivatives” (Novo Nordisk A/S, priority 2012, dated 2020):
Numbered stars: 1 amine (or outer) side, 2 acyl side, 3 side chain; on linkers, the order of the positions; unused ones are H or OH. Square brackets hold non-standard residues; d marks the D form. Side chains are listed from the residue outwards. Peptide text beside a SMILES is read from it. * marks the point of attachment. Decanoyl(10-(4-HOOC-PhO)) = O=C(O)c1ccc(OCCCCCCCCCC(=O)*)cc1; γGlu = O=C(O)[C@H](CCC(=O)[*:2])N[*:1]; εLys = N[C@@H](CCCCN[*:1])C(=O)[*:2]; AEEA = NCCOCCOCC(=O)O; Aib = CC(C)(N)C(=O)O

How the values were obtained:
human GLP-1 receptor [1] = target: T1, human GLP-1 receptor (Homo sapiens, UniProt P43220); experiment: In vitro potency (CRE luciferase; whole cells); assay type: cell-based; set-up: EC50/pM (ratio 1% HSA/0% HSA): unit not given here; settings: for EC50: BHK cells; for EC50/pM (ratio 1% HSA/0% HSA): ratio of EC50 at 1% HSA to EC50 at 0% HSA
T1 construct: expressed in transfected cells; host or cells: BHK cells, clone FCW467-12A/KZ10-1 (parent line BHKTS13), further transfected with CRE luciferase
Summary of the method: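 Stably transfected BHK cells carrying human GLP-1R and a CRE–firefly luciferase reporter, 5×10^3 cells/well in assay medium, run with 0% or 1% HSA in assay buffer.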

[2] = Pharmacokinetic (PK) study in minipig; settings: male, Göttingen, in vivo, iv
[3] = Pharmacokinetic (PK) study in rat; settings: male, Sprague Dawley, in vivo, iv, 6 nmol/kg
human GLP-1 receptor [4] = target: T1, human GLP-1 receptor; experiment: GLP-1 receptor binding (SPA, displacement of 125I-GLP-1)
Summary of the method: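 Membranes from a stably transfected hamster cell line, 5-10 ug protein/sample, with WGA SPA beads and [125I]-GLP-1(7-36)NH2 at 0.06 nM final. Incubated 120 min at 30 °C with shaking, then counted.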

[5] = In vitro potency (CRE luciferase) EC50 (0% HSA), 0% HSA
[6] = In vitro potency (CRE luciferase) EC50 (1% HSA), 1% HSA
[7] = Receptor binding affinity IC50 (high HSA), 2.0% HSA (high albumin)
[8] = Receptor binding affinity IC50 (low HSA), 0.001% HSA (low albumin)

T1 sequence (P43220 24-463): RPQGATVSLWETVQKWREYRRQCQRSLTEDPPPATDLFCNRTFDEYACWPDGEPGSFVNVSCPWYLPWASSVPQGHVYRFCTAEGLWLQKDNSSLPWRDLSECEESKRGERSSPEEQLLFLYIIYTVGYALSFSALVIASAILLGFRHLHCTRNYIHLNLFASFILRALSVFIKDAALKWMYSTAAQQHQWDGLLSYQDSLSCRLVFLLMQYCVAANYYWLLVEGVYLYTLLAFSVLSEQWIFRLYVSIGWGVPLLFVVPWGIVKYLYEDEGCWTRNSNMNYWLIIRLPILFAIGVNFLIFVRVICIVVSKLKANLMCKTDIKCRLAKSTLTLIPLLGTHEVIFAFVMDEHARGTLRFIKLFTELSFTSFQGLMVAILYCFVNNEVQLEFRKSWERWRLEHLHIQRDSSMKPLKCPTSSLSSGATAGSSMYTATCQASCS

Row | Compound | EC50 (human GLP-1 receptor [1]; [5]) [nM] | EC50 (human GLP-1 receptor [1]; [6]) [nM] | EC50/pM (ratio 1% HSA/0% HSA) (human GLP-1 receptor [1]) | half-life [2] [h] | half-life [3] [h] | IC50 (human GLP-1 receptor [4]; [7]) [nM] | IC50 (human GLP-1 receptor [4]; [8]) [nM]
1 | CC[C@H](C)[C@H](NC(=O)[C@H](Cc1ccccc1)NC(=O)[C@H](CCC(=O)O)NC(=O)[C@H](CCCCNC(=O)[C@@H](N)CCCCNC(=O)[C@@H](N)CCCCNC(=O)CC[C@H](NC(=O)CC[C@H](NC(=O)CCCCCCCCCCCOc1ccc(C(=O)O)cc1)C(=O)O)C(=O)O)NC(=O)[C@H](C)NC(=O)[C@H](C)NC(=O)[C@H](CCC(N)=O)NC(=O)CNC(=O)[C@H](CCC(=O)O)NC(=O)[C@H](CC(C)C)NC(=O)[C@H](Cc1ccc(O)cc1)NC(=O)[C@H](CO)NC(=O)[C@H](CO)NC(=O)[C@@H](NC(=O)[C@H](CC(=O)O)NC(=O)[C@H](CO)NC(=O)[C@@H](NC(=O)[C@H](Cc1ccccc1)NC(=O)[C@@H](NC(=O)CNC(=O)[C@H](CCC(=O)O)NC(=O)C(C)(C)NC(=O)[C@@H](N)Cc1c[nH]cn1)[C@@H](C)O)[C@@H](C)O)C(C)C)C(=O)N[C@@H](C)C(=O)N[C@@H](Cc1c[nH]c2ccccc12)C(=O)N[C@@H](CC(C)C)C(=O)N[C@H](C(=O)N[C@@H](CCCNC(=N)N)C(=O)NCC(=O)N[C@@H](CCCNC(=N)N)C(=O)N[C@@H](CCCCNC(=O)[C@@H](N)CCCCNC(=O)[C@@H](N)CCCCNC(=O)CC[C@H](NC(=O)CC[C@H](NC(=O)CCCCCCCCCCCOc1ccc(C(=O)O)cc1)C(=O)O)C(=O)O)C(=O)O)C(C)C [Example 16, N^ε26-[(2S)-2-amino-6-[[(2S)-2-amino-6-[[(4S)-4-carboxy-4-[[(4S)-4-carboxy-4-[12-(4-carboxyphenoxy)dodecanoylamino]butanoyl]amino]butanoyl]amino]hexanoyl]amino]hexanoyl], N^ε37-[(2S)-2-amino-6-[[(2S)-2-amino-6-[[(4S)-4-carboxy-4-[[(4S)-4-carboxy-4-[12-(4-carboxyphenoxy)dodecanoylamino]butanoyl]amino]butanoyl]amino]hexanoyl]amino]hexanoyl]-[Aib^8,Arg^34,Lys^37]-GLP-1-(7-37)-peptide] | 0.0033 | 0.047 | 14 | 64 | 17 | 199 | 0.24
2 | CC[C@H](C)[C@H](NC(=O)[C@H](Cc1ccccc1)NC(=O)[C@H](CCC(=O)O)NC(=O)[C@H](CCCCNC(=O)[C@@H](N)CCCCNC(=O)CC[C@H](NC(=O)CC[C@H](NC(=O)CC[C@H](NC(=O)CCCCCCCCCCCOc1ccc(C(=O)O)cc1)C(=O)O)C(=O)O)C(=O)O)NC(=O)[C@H](C)NC(=O)[C@H](C)NC(=O)[C@H](CCC(N)=O)NC(=O)CNC(=O)[C@H](CCC(=O)O)NC(=O)[C@H](CC(C)C)NC(=O)[C@H](Cc1ccc(O)cc1)NC(=O)[C@H](CO)NC(=O)[C@H](CO)NC(=O)[C@@H](NC(=O)[C@H](CC(=O)O)NC(=O)[C@H](CO)NC(=O)[C@@H](NC(=O)[C@H](Cc1ccccc1)NC(=O)[C@@H](NC(=O)CNC(=O)[C@H](CCC(=O)O)NC(=O)C(C)(C)NC(=O)[C@@H](N)Cc1c[nH]cn1)[C@@H](C)O)[C@@H](C)O)C(C)C)C(=O)N[C@@H](C)C(=O)N[C@@H](Cc1c[nH]c2ccccc12)C(=O)N[C@@H](CC(C)C)C(=O)N[C@H](C(=O)N[C@@H](CCCNC(=N)N)C(=O)NCC(=O)N[C@@H](CCCNC(=N)N)C(=O)N[C@@H](CCCCNC(=O)[C@@H](N)CCCCNC(=O)CC[C@H](NC(=O)CC[C@H](NC(=O)CC[C@H](NC(=O)CCCCCCCCCCCOc1ccc(C(=O)O)cc1)C(=O)O)C(=O)O)C(=O)O)C(=O)O)C(C)C [Example 17, N^ε26-[(2S)-2-amino-6-[[(4S)-4-carboxy-4-[[(4S)-4-carboxy-4-[[(4S)-4-carboxy-4-[12-(4-carboxyphenoxy)dodecanoylamino]butanoyl]amino]butanoyl]amino]butanoyl]amino]hexanoyl], N^ε37-[(2S)-2-amino-6-[[(4S)-4-carboxy-4-[[(4S)-4-carboxy-4-[[(4S)-4-carboxy-4-[12-(4-carboxyphenoxy)dodecanoylamino]butanoyl]amino]butanoyl]amino]butanoyl]amino]hexanoyl]-[Aib^8,Arg^34,Lys^37]-GLP-1-(7-37)-peptide] | 0.0033 |  |  | 71 | 24 | 632 | 0.42
3 | CC[C@H](C)[C@H](NC(=O)[C@H](Cc1ccccc1)NC(=O)[C@H](CCC(=O)O)NC(=O)[C@H](CCCCNC(=O)[C@@H](N)CCCCNC(=O)COCCOCCNC(=O)COCCOCCNC(=O)CC[C@H](NC(=O)CCCCCCCCCOc1ccc(C(=O)O)cc1)C(=O)O)NC(=O)[C@H](C)NC(=O)[C@H](C)NC(=O)[C@H](CCC(N)=O)NC(=O)[C@H](CCC(=O)O)NC(=O)[C@H](CCC(=O)O)NC(=O)[C@H](CC(C)C)NC(=O)[C@H](Cc1ccc(O)cc1)NC(=O)[C@H](CO)NC(=O)[C@H](CO)NC(=O)[C@@H](NC(=O)[C@H](CC(=O)O)NC(=O)[C@H](CO)NC(=O)[C@@H](NC(=O)[C@H](Cc1ccccc1)NC(=O)[C@@H](NC(=O)CNC(=O)[C@H](CCC(=O)O)NC(=O)C(C)(C)NC(=O)[C@@H](N)Cc1c[nH]cn1)[C@@H](C)O)[C@@H](C)O)C(C)C)C(=O)N[C@@H](C)C(=O)N[C@@H](Cc1c[nH]c2ccccc12)C(=O)N[C@@H](CC(C)C)C(=O)N[C@H](C(=O)N[C@@H](CCC(N)=O)C(=O)NCC(=O)N[C@@H](CCCNC(=N)N)C(=O)N[C@@H](CCCCNC(=O)[C@@H](N)CCCCNC(=O)COCCOCCNC(=O)COCCOCCNC(=O)CC[C@H](NC(=O)CCCCCCCCCOc1ccc(C(=O)O)cc1)C(=O)O)C(=O)O)C(C)C [Example 18] (H-H[Aib]EGTFTSDVSSYLEEQAAK([εLys-AEEA-AEEA-γGlu-Decanoyl(10-(4-HOOC-PhO))])EFIAWLVQGRK([εLys-AEEA-AEEA-γGlu-Decanoyl(10-(4-HOOC-PhO))])-OH; N-terminus and C-terminus assumed) | 0.012 | 0.079 | 6.9 | 47 | 20 | 159 | 0.99
4 | CC[C@H](C)[C@H](NC(=O)[C@H](Cc1ccccc1)NC(=O)[C@H](CCC(=O)O)NC(=O)[C@H](CCCCNC(=O)[C@@H](N)CCCCNC(=O)[C@@H](N)CCCCNC(=O)CC[C@H](NC(=O)CCCCCCCCCCOc1ccc(C(=O)O)cc1)C(=O)O)NC(=O)[C@H](C)NC(=O)[C@H](C)NC(=O)[C@H](CCC(N)=O)NC(=O)CNC(=O)[C@H](CCC(=O)O)NC(=O)[C@H](CC(C)C)NC(=O)[C@H](Cc1ccc(O)cc1)NC(=O)[C@H](CO)NC(=O)[C@H](CO)NC(=O)[C@@H](NC(=O)[C@H](CC(=O)O)NC(=O)[C@H](CO)NC(=O)[C@@H](NC(=O)[C@H](Cc1ccccc1)NC(=O)[C@@H](NC(=O)CNC(=O)[C@H](CCC(=O)O)NC(=O)C(C)(C)NC(=O)[C@@H](N)Cc1c[nH]cn1)[C@@H](C)O)[C@@H](C)O)C(C)C)C(=O)N[C@@H](C)C(=O)N[C@@H](Cc1c[nH]c2ccccc12)C(=O)N[C@@H](CC(C)C)C(=O)N[C@H](C(=O)N[C@@H](CCCNC(=N)N)C(=O)NCC(=O)N[C@@H](CCCNC(=N)N)C(=O)N[C@@H](CCCCNC(=O)[C@@H](N)CCCCNC(=O)[C@@H](N)CCCCNC(=O)CC[C@H](NC(=O)CCCCCCCCCCOc1ccc(C(=O)O)cc1)C(=O)O)C(=O)O)C(C)C [Example 20, N^ε26-[(2S)-2-amino-6-[[(2S)-2-amino-6-[[(4S)-4-carboxy-4-[11-(4-carboxyphenoxy)undecanoylamino]butanoyl]amino]hexanoyl]amino]hexanoyl], N^ε37-[(2S)-2-amino-6-[[(2S)-2-amino-6-[[(4S)-4-carboxy-4-[11-(4-carboxyphenoxy)undecanoylamino]butanoyl]amino]hexanoyl]amino]hexanoyl]-[Aib^8,Arg^34,Lys^37]-GLP-1-(7-37)-peptide] | 0.0049 | 0.063 | 13 | 59 | 14 | 48 | 0.13
